From patent US20150037825A1 (priority 2011, published 2015)
Structures can show the parent of a compound that is named as a salt. Marks after values point to notes of the source that are not given here.

System: plasma metabolites
Settings: rat, in vivo

Molecule: Nc1ccccc1Cl [2-Chloroaniline]
- 3,4-Dihydroxyphenylalanine (DOPA), ratio versus control: 0.76
- 3,4-Dihydroxyphenylglycol (DOPEG), ratio versus control: 0.87
- 3-Hydroxyindole, ratio versus control: 1.40
- 3-Indoxylsulfate, ratio versus control: 1.68
- 3-Methoxytyrosine, ratio versus control: 1.48
- Cytosine, ratio versus control: 1.41
- Ketoleucine, ratio versus control: 0.60
- Ribal, ratio versus control: 1.24
- Serotonin (5-HT), ratio versus control: 2.64
- biomarkers of table 12a and/or 12b (early indicators of blood anemia) altered as early as: 7 days

Molecule: Nc1ccc(Cl)c([N+](=O)[O-])c1 [4-Chloro-3 nitroaniline]
- 3-Hydroxyindole, ratio versus control: 1.25
- 3-Indoxylsulfate, ratio versus control: 1.34
- 3-Methoxytyrosine, ratio versus control: 1.90
- Cytosine, ratio versus control: 1.75
- Ribal, ratio versus control: 1.89
- Serotonin (5-HT), ratio versus control: 9.50

Molecule: Nc1ccc(Cl)c([N+](=O)[O-])c1 [4-Chloro-3-nitroaniline]
- 3,4-Dihydroxyphenylalanine (DOPA), ratio versus control: 0.93
- 3,4-Dihydroxyphenylglycol (DOPEG), ratio versus control: 0.53
- Ketoleucine, ratio versus control: 0.61
- biomarkers of table 12a and/or 12b (early indicators of blood anemia) altered as early as: 7 days

Molecule: COc1cccc2c1C(=O)c1c(O)c3c(c(O)c1C2=O)C[C@@](O)(C(=O)CO)C[C@@H]3O[C@H]1C[C@H](N)[C@H](O)[C@H](C)O1 [Adriamycin hydrochloride]
- 3-Hydroxybutyrate, plasma, ratio vs control: 0.66 *
- 18-Hydroxy-11-deoxycorticosterone, plasma, ratio vs control: 0.44 *
- Choline plasmalogen No 02, plasma, ratio vs control: 1.18 *
- Citrate, plasma, ratio vs control: 0.86
- Ketoleucine, plasma, ratio vs control: 0.69 *
- Lignoceric acid (C24:0), plasma, ratio vs control: 2.04 *
- Taurine, plasma, ratio vs control: 1.39 *
- Tricosanoic acid (C23:0), plasma, ratio vs control: 2.14 *

Molecule: Nc1ccccc1 [Aniline]
- 3,4-Dihydroxyphenylalanine (DOPA), ratio versus control: 0.81
- 3,4-Dihydroxyphenylglycol (DOPEG), ratio versus control: 0.84
- 3-Hydroxyindole, ratio versus control: 1.61
- 3-Indoxylsulfate, ratio versus control: 1.64
- 3-Methoxytyrosine, ratio versus control: 1.35
- Cytosine, ratio versus control: 1.62
- Ketoleucine, ratio versus control: 0.94
- Ribal, ratio versus control: 1.66
- biomarkers of table 12a and/or 12b (early indicators of blood anemia) altered as early as: 7 days

Molecule: N.N.O=C([O-])C1(C(=O)[O-])CCC1.[Pt+2] [Carboplatin]
- 3-Hydroxybutyrate, plasma, ratio vs control: 0.74 *
- 4-Hydroxyphenylpyruvate, plasma, ratio vs control: 0.39 *
- 14-Methylhexadecanoic acid, plasma, ratio vs control: 0.72 *
- 21-Hydroxyprogesterone (11-Deoxycorticosterone), plasma, ratio vs control: 0.09 *
- Ascorbic acid, plasma, ratio vs control: 0.84 *
- Choline plasmalogen (C18, C20:4), plasma, ratio vs control: 0.89 *
- Corticosterone, plasma, ratio vs control: 0.31 *
- Fructose-6-phosphate, plasma, ratio vs control: 1.74 *
- Glucose-6-phosphate, plasma, ratio vs control: 2.2 *
- Histidine, plasma, ratio vs control: 1.17 *
- Indole-3-lactic acid, plasma, ratio vs control: 1.13 *
- Ornithine, plasma, ratio vs control: 1.11 *
- Phenylalanine, plasma, ratio vs control: 1.2 *
- Phosphate (inorganic and organic phosphates), plasma, ratio vs control: 1.57 *
- Phosphatidylcholine (C18:0, C18:2), plasma, ratio vs control: 1.22 *
- Progesterone, plasma, ratio vs control: 0.49*
- Taurine, plasma, ratio vs control: 1.47 *
- Threonic acid, plasma, ratio vs control: 1.51 *
- Tryptophan, plasma, ratio vs control: 1.17 *

Molecule: O=P1(N(CCCl)CCCl)NCCCO1 (stereo not drawn) [Cyclophosphamide monohydrate]
- 3-Hydroxybutyrate, plasma, ratio vs control: 0.75 *
- 18-Hydroxy-11-deoxycorticosterone, plasma, ratio vs control: 0.16 *
- Choline plasmalogen No 02, plasma, ratio vs control: 1.13 *
- Citrate, plasma, ratio vs control: 0.78 *
- Isoleucine, plasma, ratio vs control: 1.23 *
- Ketoleucine, plasma, ratio vs control: 0.88 *
- Leucine, plasma, ratio vs control: 1.33 *
- Lignoceric acid (C24:0), plasma, ratio vs control: 1.29 *
- Taurine, plasma, ratio vs control: 1.21 *
- Tricosanoic acid (C23:0), plasma, ratio vs control: 1.44 *
- Valine, plasma, ratio vs control: 1.25 *

Molecule: Nc1ccn([C@@H]2O[C@H](CO)[C@@H](O)[C@@H]2O)c(=O)n1 [Cytarabin]
- 3-Hydroxybutyrate, plasma, ratio vs control: 0.53 *
- 18-Hydroxy-11-deoxycorticosterone, plasma, ratio vs control: 0.13 *
- Choline plasmalogen No 02, plasma, ratio vs control: 1.11 *
- Citrate, plasma, ratio vs control: 0.81 *
- Isoleucine, plasma, ratio vs control: 1.1 *
- Ketoleucine, plasma, ratio vs control: 0.75 *
- Leucine, plasma, ratio vs control: 1.12 *
- Lignoceric acid (C24:0), plasma, ratio vs control: 1.31 *
- Taurine, plasma, ratio vs control: 1.27 *
- Tricosanoic acid (C23:0), plasma, ratio vs control: 1.3
- Valine, plasma, ratio vs control: 1.1 *

Molecule: C[C@H]1C[C@@H]2[C@H]([C@@H](O)C[C@@]3(C)[C@H]2CC[C@]3(O)C(=O)CO)[C@@]2(C)C=CC(=O)C=C12 [Methylprednisolone]
- 18-Hydroxy-11-deoxycorticosterone, ratio versus control: 0.15 *
- Aspartate, ratio versus control: 1.37 *
- Cholesterolester No 01, ratio versus control: 1.08 *
- Glutamate, ratio versus control: 1.11 *
- Glycerol-3-phosphate, polar fraction, ratio versus control: 1.4 *
- Ketoleucine, ratio versus control: 0.75 *
- Pyruvate, ratio versus control: 0.65 *

Molecule: C=CC[C@@H]1/C=C(\C)C[C@H](C)C[C@H](OC)[C@H]2O[C@@](O)(C(=O)C(=O)N3CCCC[C@H]3C(=O)O[C@H](/C(C)=C/[C@@H]3CC[C@@H](O)[C@H](OC)C3)[C@H](C)[C@@H](O)CC1=O)[C@H](C)C[C@@H]2OC [Tacrolimus]
- 18-Hydroxy-11-deoxycorticosterone, ratio versus control: 0.48 *
- Aspartate, ratio versus control: 1.42 *
- Cholesterolester No 01, ratio versus control: 1.05 *
- Glutamate, ratio versus control: 1.29 *
- Glycerol-3-phosphate, polar fraction, ratio versus control: 1.54 *
- Ketoleucine, ratio versus control: 0.85 *
- Pyruvate, ratio versus control: 0.77 *

Molecule: Lead acetate trihydrate
- Cholesterolester No 01, plasma, ratio vs control: 1.28 *
- Glucose, plasma, ratio vs control: 0.91
- Phosphatidylcholine (C16:0, C18:2), plasma, ratio vs control: 1.06 *
- Sphingomyelin (d18:2, C18:0), plasma, ratio vs control: 1.09 *
- TAG (C18:1, C18:2), plasma, ratio vs control: 1.33 *
- TAG (C18:2, C18:2), plasma, ratio vs control: 1.48 *
- TAG No 01, plasma, ratio vs control: 1.5 *
